In patent US6949655B2, “Acyclic piperidine derivatives” (priority 2001, dated 2005):

tested on: rat embryo ventral mesencephalic cells; assay: Neuroprotection assay (NMDA-induced neuroexcitotoxic injury, 3H-dopamine uptake); format: cell-based, Sprague-Dawley rat; conditions: VM cell culture, NMDA 100-400 μM for 20 hours, high affinity 3H-dopamine uptake
Text: The neuroprotective activity of the compounds of this invention may be assayed using rat embryo ventral mesencephalic cells in culture which are subsequently exposed to the glutamate receptor agonist NMDA. This assay is described in detail in the example section.
The ventral mesencephalic region was dissected out of embryonic day 15 Sprague-Dawley rat embryos (Harlan), dissociated into single cell suspension by a combination of trypsinization and trituration (Costantini et al., Neurobiol Dis., pp. 97-106 (1998). Dissociated VM cells were plated into poly-L-ornithine-coated 96-well plates at a density of 85,000 cells/well in 100 uL of DMEM supplemented with 18% heat-inactivated horse serum, 0.24% glucose, 2 mM glutamine and 50 u/ml pernicillin/streptomycin and incubated in a 5% CO2 incubator. After one day in culture (DIV1), the medium was replaced with 100 μL of a defined medium (DMEM supplemented with 1×N2 cocktail (Gibco-BRL), 0.12% glucose, 2 mM glutamine, and 50 units/ml penicillin/streptomycin) containing DMSO or various concentrations of the compounds of this invention. On DIV5, neuroexcitotoxic injury was induced by the addition of various concentrations of the glutamate receptor agonist NMDA (100-400 μM). Cultures were incubated with the neurotoxin for 20 hours and the effects of neurophilin compounds were assessed using high affinity ^3H-dopamine uptake according to a procedure published by Park and Mytilineou [Brain Res., 599, pp. 83-97 (1992)].

First: CN(C)CC(=O)N1CCC(Cc2ccccc2)CC1 [Compound 1]
Second: C[C@H](c1ccccc1)N(C)CC(=O)N1CCC(Cc2ccccc2)CC1 [Compound 7]
The EC50 of the first is higher: over 500 nM for the first, 100 to 500 nM for the second. The second is the more potent here.

`CCN(CC(=O)N1CCN(c2ccccc2)CC1)Cc1ccccc1` [Compound 2] and `O=C(CN(Cc1ccccc1)Cc1ccccc1)N1CCN(c2ccccc2)CC1` [Compound 14] cannot be ordered by EC50: over 500 nM for the first, over 500 nM for the second.

`C[C@H](c1ccccc1)N(C)CC(=O)N1CCN(c2ccccc2)CC1` [Compound 3] and `C[C@@H](c1ccccc1)N(C)CC(=O)N1CCN(c2ccccc2)CC1` [Compound 4] cannot be ordered by EC50: over 500 nM for the first, over 500 nM for the second.

Compared with `C[C@@H](C(=O)N1CCC(Cc2ccccc2)CC1)N(C)Cc1ccccc1` [Compound 5], `CCC(C)[C@@H](C(=O)N1CCC(Cc2ccccc2)CC1)N(C)Cc1ccccc1` (some centres unmarked) [Compound 13] is higher in EC50: under 100 nM for the first, over 500 nM for the second. The first is the more potent here.

First: CCN(CC(=O)N1CCC(Cc2ccccc2)CC1)Cc1ccccc1 [Compound 6]
Second: O=C(CN(Cc1ccccc1)Cc1ccccc1)N1CCC(Cc2ccccc2)CC1 [Compound 15]
The EC50 of the first is lower: 100 to 500 nM for the first, over 500 nM for the second. The first is the more potent here.

First: C[C@@H](c1ccccc1)N(C)CC(=O)N1CCC(Cc2ccccc2)CC1 [Compound 8]
Second: C[C@@H](C(=O)N1CCC(Cc2ccc(F)cc2)CC1)N(C)Cc1ccccc1 [Compound 11, 2-(Benzyl-methylamino)-1-[4-(4-fluorobenzyl)-piperidin-1-yl]-propan-1-one]
The EC50 of the first is higher: 100 to 500 nM for the first, under 100 nM for the second. The second is the more potent here.

First: C[C@@H](C(=O)N1CCN(c2ccc(F)cc2)CC1)N(C)Cc1ccccc1 [Compound 9, 2-(Benzyl-methylamino)-1-[4-(4-fluorophenyl)-piperazin-1-yl]-propan-1-one]
Second: C[C@@H](C(=O)N1CCN(C(c2ccc(F)cc2)c2ccc(F)cc2)CC1)N(C)Cc1ccccc1 [Compound 19, 2-(Benzyl-methylamino)-1-{4-[bis-4-(4-fluorophenyl)-methyl]-piperazin-1-yl]-propan-1-one]
The EC50 of the first is lower: under 100 nM for the first, 100 to 500 nM for the second.

First: CN(C)C1(C(=O)N2CCC(Cc3ccccc3)CC2)CCc2ccccc21 (centres unmarked) [Compound 10]
Second: CCN(CC(=O)N1CCN(C(c2ccc(F)cc2)c2ccc(F)cc2)CC1)Cc1ccccc1 [Compound 16]
The EC50 of the first is lower: 100 to 500 nM for the first, over 500 nM for the second.

`CN(C)CC(=O)N1CCN(C(c2ccc(F)cc2)c2ccc(F)cc2)CC1` [Compound 12] and `C[C@H](c1ccccc1)N(C)CC(=O)N1CCN(C(c2ccc(F)cc2)c2ccc(F)cc2)CC1` [Compound 17] cannot be ordered by EC50: over 500 nM for the first, over 500 nM for the second.

`C[C@@H](c1ccccc1)N(C)CC(=O)N1CCN(C(c2ccc(F)cc2)c2ccc(F)cc2)CC1` [Compound 18] and `O=C(CN(Cc1ccccc1)Cc1ccccc1)N1CCN(C(c2ccc(F)cc2)c2ccc(F)cc2)CC1` [Compound 20] cannot be ordered by EC50: over 500 nM for the first, over 500 nM for the second.
